≈ marks a conversion by molar mass, not a printed value.
Legend:
Assay type in all cases: cell-based
[1] = tested on: S. aureus ATCC 29213 (SA101, MSSA); assay: Minimum inhibitory concentration assay, SA101; settings: Staphylococcus aureus; S. aureus ATCC 29213, MSSA control; read-out: MICs SA101
Experimental: (§1) Frozen bacterial strains were thawed and subcultured onto Mueller Hinton Broth (MHB) or other appropriate media (Streptococcus requires blood and Haemophilus requires hemin and NAD). Following incubation overnight, the strains were subcultured onto Mueller Hinton Agar and again incubated overnight. […] Isolated colonies were selected to prepare a starting inoculum equivalent to a 0.5 McFarland standard. The starting inoculum was diluted 1:125 using MHB for further use. Test compounds were prepared by dilution in sterile water to a final concentration of 5.128 mg/mL. Antibiotics (stored frozen, thawed and used within 3 hours of thawing) and compounds were further diluted to the desired working concentrations.
(§2) The assays were run as follows. Fifty μL of MHB was added to wells 2-12 of a 96-well plate. One hundred […] of appropriately diluted antibiotics was added to well 1. Fifty μL of antibiotics was removed from well 1 and added to well 2 and the contents of well 2 mixed by pipetting up and down five times. Fifty μL of the mixture in well 2 was removed and added to well 3 and mixed as above. Serial dilutions were continued in the same manner through well 12. Fifty μL was removed from well 12 so that all contained 50 μL. Fifty μL of the working inoculum was then added to all test wells. A growth control well was prepared by adding 50 μL of working inoculum and 50 μL of MHB to an empty well. The plates were then incubated at 37° C. overnight, removed from the incubator and each well was read on a plate reading mirror. The lowest concentration (MIC) of test compound that inhibited the growth of the bacteria was recorded.

[2] = tested on: S. aureus ATCC 13709 (SA100, MSSA, Smith strain); assay: Minimum inhibitory concentration assay, SA100; settings: Staphylococcus aureus; S. aureus ATCC 13709, MSSA Smith strain; read-out: MICs SA100
Experimental: as §1, §2

[3] = tested on: S. aureus SA161 (tet resistant: tet(M) ribosomal protection); assay: Minimum inhibitory concentration assay, SA161; settings: Staphylococcus aureus, read-out: MICs SA161
Experimental: as §1, §2

[4] = tested on: E. coli EC155 (tet resistant: tetA efflux); assay: microbe, parasite or virus in culture; settings: Escherichia coli; E. coli tet resistant: tetA (efflux); read-out: MICs EC155
Experimental: as §1, §2

[5] = tested on: K. pneumoniae KP153 (tet resistant: tetA efflux); assay: microbe, parasite or virus in culture; settings: Klebsiella pneumoniae, read-out: MICs KP153
Experimental: as §1, §2

[6] = tested on: S. aureus SA158 (tet resistant: tetK efflux); assay: microbe, parasite or virus in culture; settings: Staphylococcus aureus, read-out: MICs SA158
Experimental: as §1, §2

[7] = tested on: E. faecalis ATCC 29212 (EF103); assay: Minimum inhibitory concentration assay, EF103; settings: Enterococcus faecalis, ATCC29212, read-out: MICs EF103
Experimental: as §1, §2

[8] = tested on: E. faecalis EF159 (tet resistant: tetM); assay: Minimum inhibitory concentration assay, EF159; settings: Enterococcus faecalis, read-out: MICs EF159
Experimental: as §1, §2

[9] = tested on: S. pneumoniae ATCC 49619 (SP106); assay: Minimum inhibitory concentration assay, SP106; settings: Streptococcus pneumoniae, ATCC49619; S. pneumoniae ATCC 49619, wt; read-out: MICs SP106
Experimental: as §1, §2

[10] = tested on: S. pneumoniae SP160 (tet resistant: tet M); assay: Minimum inhibitory concentration assay, SP160; settings: Streptococcus pneumoniae, read-out: MICs SP160
Experimental: as §1, §2

[11] = tested on: E. coli ATCC 25922 (EC107); assay: Minimum inhibitory concentration assay, EC107; settings: Escherichia coli, ATCC25922; E. coli ATCC 25922, wt; read-out: MICs EC107
Experimental: as §1, §2

[12] = tested on: A. baumanii ATCC 19606 (AB110); assay: Minimum inhibitory concentration assay, AB110; settings: Acinetobacter baumannii, ATCC19606; A. baumanii ATCC 19606, wt; read-out: MICs AB110
Experimental: as §1, §2

[13] = tested on: P. aeruginosa ATCC 27853 (PA111); assay: Minimum inhibitory concentration assay, PA111; settings: Pseudomonas aeruginosa, ATCC27853; P. aeruginosa ATCC 27853, wt; read-out: MICs PA111
Experimental: as §1, §2

[14] = tested on: E. cloacae ATCC 13047 (EC108); assay: Minimum inhibitory concentration assay, EC108; settings: Enterobacter cloacae, ATCC13047; E. cloacae ATCC 13047, wt; read-out: MICs EC108
Experimental: as §1, §2

[15] = tested on: K. pneumoniae ATCC 13883 (KP109); assay: Minimum inhibitory concentration assay, KP109; settings: Klebsiella pneumoniae, ATCC13883; K. pneumoniae ATCC 13883, wt; read-out: MICs KP109
Experimental: as §1, §2

SMILES | MIC [1] | MIC [2] | MIC [3] | MIC [4] | MIC [5] | MIC [6] | MIC [7] | MIC [8] | MIC [9] | MIC [10] | MIC [11] | MIC [12] | MIC [13] | MIC [14] | MIC [15]
CN(C)[C@@H]1C(O)=C(C(N)=O)C(=O)[C@@]2(O)C(O)=C3C(=O)c4c(O)c(NC(=O)CN5CC[C@@H](F)C5)cc(F)c4C[C@H]3C[C@@H]12 [Compound 35] | 0.25 µg/mL (≈ 0.434 µM) | 0.25 µg/mL (≈ 0.434 µM) | 0.5 µg/mL (≈ 0.867 µM) | 16 µg/mL (≈ 27.8 µM) | 8 µg/mL (≈ 13.9 µM) | 0.5 µg/mL (≈ 0.867 µM) | 0.125 µg/mL (≈ 0.217 µM) | 0.25 µg/mL (≈ 0.434 µM) | 0.016 µg/mL (≈ 0.0278 µM) | 0.016 µg/mL (≈ 0.0278 µM) | 1 µg/mL (≈ 1.73 µM) | 0.25 µg/mL (≈ 0.434 µM) | > 32 µg/mL | 8 µg/mL (≈ 13.9 µM) | 4 µg/mL (≈ 6.94 µM)
CN(C)[C@@H]1C(O)=C(C(N)=O)C(=O)[C@@]2(O)C(O)=C3C(=O)c4c(O)c(NC(=O)CN5CC[C@H](F)C5)cc(F)c4C[C@H]3C[C@@H]12 [Compound 36] | 0.25 µg/mL (≈ 0.434 µM) | 0.5 µg/mL (≈ 0.867 µM) | 0.5 µg/mL (≈ 0.867 µM) | 32 µg/mL (≈ 55.5 µM) | 32 µg/mL (≈ 55.5 µM) | 1 µg/mL (≈ 1.73 µM) | 0.25 µg/mL (≈ 0.434 µM) | 0.25 µg/mL (≈ 0.434 µM) | ≤ 0.0156 µg/mL | ≤ 0.0156 µg/mL | 2 µg/mL (≈ 3.47 µM) | 0.125 µg/mL (≈ 0.217 µM) | > 32 µg/mL | 4 µg/mL (≈ 6.94 µM) | 4 µg/mL (≈ 6.94 µM)
CN(C)[C@@H]1CCN(CC(=O)Nc2cc(F)c3c(c2O)C(=O)C2=C(O)[C@]4(O)C(=O)C(C(N)=O)=C(O)[C@@H](N(C)C)[C@@H]4C[C@@H]2C3)C1 [Compound 37] | 8 µg/mL (≈ 13.3 µM) | 8 µg/mL (≈ 13.3 µM) | > 32 µg/mL | > 32 µg/mL | > 32 µg/mL | > 32 µg/mL | 16 µg/mL (≈ 26.6 µM) | 16 µg/mL (≈ 26.6 µM) | 2 µg/mL (≈ 3.32 µM) | 4 µg/mL (≈ 6.65 µM) | > 32 µg/mL | > 32 µg/mL | > 32 µg/mL | > 32 µg/mL | > 32 µg/mL
CN(C)[C@H]1CCN(CC(=O)Nc2cc(F)c3c(c2O)C(=O)C2=C(O)[C@]4(O)C(=O)C(C(N)=O)=C(O)[C@@H](N(C)C)[C@@H]4C[C@@H]2C3)C1 [Compound 38] | 8 µg/mL (≈ 13.3 µM) | 8 µg/mL (≈ 13.3 µM) | 16 µg/mL (≈ 26.6 µM) | > 32 µg/mL | > 32 µg/mL | 32 µg/mL (≈ 53.2 µM) | 8 µg/mL (≈ 13.3 µM) | 16 µg/mL (≈ 26.6 µM) | 2 µg/mL (≈ 3.32 µM) | 8 µg/mL (≈ 13.3 µM) | > 32 µg/mL | > 32 µg/mL | > 32 µg/mL | > 32 µg/mL | > 32 µg/mL
CN(C)[C@@H]1C(O)=C(C(N)=O)C(=O)[C@@]2(O)C(O)=C3C(=O)c4c(O)c(NC(=O)CN5CC[C@@H](O)C5)cc(F)c4C[C@H]3C[C@@H]12 [Compound 39] | 2 µg/mL (≈ 3.48 µM) | 2 µg/mL (≈ 3.48 µM) | 2 µg/mL (≈ 3.48 µM) | > 32 µg/mL | > 32 µg/mL | 16 µg/mL (≈ 27.8 µM) | 2 µg/mL (≈ 3.48 µM) | 2 µg/mL (≈ 3.48 µM) | 0.25 µg/mL (≈ 0.435 µM) | 0.5 µg/mL (≈ 0.87 µM) | 4 µg/mL (≈ 6.96 µM) | 32 µg/mL (≈ 55.7 µM) | > 32 µg/mL | 16 µg/mL (≈ 27.8 µM) | 16 µg/mL (≈ 27.8 µM)
CN(C)[C@@H]1C(O)=C(C(N)=O)C(=O)[C@@]2(O)C(O)=C3C(=O)c4c(O)c(NC(=O)CN5CC[C@H](O)C5)cc(F)c4C[C@H]3C[C@@H]12 [Compound 40] | 1 µg/mL (≈ 1.74 µM) | 1 µg/mL (≈ 1.74 µM) | 1 µg/mL (≈ 1.74 µM) | > 32 µg/mL | 32 µg/mL (≈ 55.7 µM) | 16 µg/mL (≈ 27.8 µM) | 1 µg/mL (≈ 1.74 µM) | 1 µg/mL (≈ 1.74 µM) | 0.0625 µg/mL (≈ 0.109 µM) | 0.5 µg/mL (≈ 0.87 µM) | 4 µg/mL (≈ 6.96 µM) | 8 µg/mL (≈ 13.9 µM) | 32 µg/mL (≈ 55.7 µM) | 4 µg/mL (≈ 6.96 µM) | 8 µg/mL (≈ 13.9 µM)
COC[C@@H]1CCCN1CC(=O)Nc1cc(F)c2c(c1O)C(=O)C1=C(O)[C@]3(O)C(=O)C(C(N)=O)=C(O)[C@@H](N(C)C)[C@@H]3C[C@@H]1C2 [Compound 41] | 1 µg/mL (≈ 1.66 µM) | 1 µg/mL (≈ 1.66 µM) | 2 µg/mL (≈ 3.32 µM) | 16 µg/mL (≈ 26.6 µM) | 16 µg/mL (≈ 26.6 µM) | 1 µg/mL (≈ 1.66 µM) | 1 µg/mL (≈ 1.66 µM) | 2 µg/mL (≈ 3.32 µM) | 0.125 µg/mL (≈ 0.207 µM) | 0.125 µg/mL (≈ 0.207 µM) | 4 µg/mL (≈ 6.64 µM) | 0.5 µg/mL (≈ 0.83 µM) | > 32 µg/mL | 16 µg/mL (≈ 26.6 µM) | 8 µg/mL (≈ 13.3 µM)

Source: patent US8796245B2 (TetraPhase Pharmaceuticals, Inc., priority 2008, dated 2014)
